Data as given in paper PMC4774911, “Biochemical Screening of Five Protein Kinases from Plasmodium falciparum against 14,000 Cell-Active Compounds” (PLoS ONE, 2016).
Read-outs that look alike come from different tables or passages of the source.

Experiments:
HepG2 cells = conditions: Nature 2010, cited from earlier work
3D7 PFLDH [1] = tested on: 3D7 PFLDH; parameters: method as in F.J. Gamo et al., Nature 2010; conditions: downloaded from ChEMBL ref F.J. Gamo et al., Nature 2010; cited from earlier work
DD2 [2] = tested on: DD2; parameters: method as in F.J. Gamo et al., Nature 2010; conditions: P. falciparum Dd2; downloaded from ChEMBL ref F.J. Gamo et al., Nature 2010; cited from earlier work
[3] = target: T1, Plasmodium falciparum calcium-dependent protein kinase 1 (CDPK1) (Plasmodium falciparum, UniProt P62344); assay: CDPK1 Kinase-Glo ATP-consumption screen and dose-response; format: biochemical; conditions: hits below 1 uM; read-out: CDPK1 IC50
T1 construct: 6-Histidine (N); made in house
Experimental: Biochemical assays were performed in white 384-well plates (Nunc). Liquid transfers were done manually with 8-channel pipets. Compounds were initially tested in a single-point screen (final concentration 1 μM). […] The catalytic activity of each kinase was considered proportional to ATP consumed, as determined from measurements of residual [ATP] with the luciferase-based reagent Kinase-Glo (Promega) following incubation. Luminescence (proportional to residual [ATP]) was measured on the plate readers FLx800 (BioTek Instruments, Winooski, VT, USA) and MicroBeta^2 (PerkinElmer, Waltham, MA, USA). Incubation times were chosen to ensure near-complete ATP depletion in the absence of inhibition, thus maximizing the difference in signal between inhibited and uninhibited wells.
40 μM Syntide-2 was used as a substrate; BKI-1 [14] was used as a control inhibitor, while reaction mixtures lacking Syntide-2 were included as an additional negative control. Incubation time was 90 minutes. Reactions were terminated by adding excess EGTA (5 mM), which sequesters Ca^2+ and halts calcium-dependent kinase activity.

P. falciparum 3D7 cells = conditions: Nature 2010, cited from earlier work
3D7 PFLDH [4] = tested on: 3D7 PFLDH; parameters: method as in F.J. Gamo et al., Nature 2010; concentration or dose not given beside the values; conditions: downloaded from ChEMBL, ref F.J. Gamo et al., Nature 2010; cited from earlier work
DD2 [5] = tested on: DD2; parameters: method as in F.J. Gamo et al., Nature 2010; conditions: downloaded from ChEMBL, ref F.J. Gamo et al., Nature 2010; cited from earlier work
[6] = HepG2 cells, downloaded from ChEMBL ref F.J. Gamo et al.
[7] = P. falciparum 3D7, downloaded from ChEMBL ref F.J. Gamo et al.
[8] = HepG2, downloaded from ChEMBL, ref F.J. Gamo et al.
[9] = 3D7, downloaded from ChEMBL, ref F.J. Gamo et al.

T1 sequence (P62344 whole entry): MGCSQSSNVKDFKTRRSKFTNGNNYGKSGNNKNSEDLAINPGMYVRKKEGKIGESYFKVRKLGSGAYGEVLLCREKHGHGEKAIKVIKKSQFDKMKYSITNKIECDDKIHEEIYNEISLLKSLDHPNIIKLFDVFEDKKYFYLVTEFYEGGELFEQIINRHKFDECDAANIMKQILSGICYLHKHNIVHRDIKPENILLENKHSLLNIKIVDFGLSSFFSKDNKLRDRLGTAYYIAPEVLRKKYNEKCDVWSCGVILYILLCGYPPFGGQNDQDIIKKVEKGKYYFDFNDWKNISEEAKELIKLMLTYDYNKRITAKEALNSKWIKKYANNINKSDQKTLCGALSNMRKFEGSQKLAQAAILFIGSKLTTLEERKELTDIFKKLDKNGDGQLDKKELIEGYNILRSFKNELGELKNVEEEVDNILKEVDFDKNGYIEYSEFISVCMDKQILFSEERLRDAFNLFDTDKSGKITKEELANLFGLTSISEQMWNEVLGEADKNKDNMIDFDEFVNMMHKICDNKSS

Compound	PCT_INHIB_HEPG2 (HepG2 cells; [6])	PCT_INHIB_3D7_PFLDH (3D7 PFLDH [1])	PCT_INHB_DD2 (DD2 [2])	IC50 [3] [nM]	PCT_IHB_3D7 (P. falciparum 3D7 cells; [7])	pXC50_3D7 (P. falciparum 3D7 cells; [7])	PCT_INHIB_HEPG2 (HepG2 cells; [8]) [%]	PCT_INHIB_3D7_PFLDH (3D7 PFLDH [4]) [%]	PCT_IHB_3D7 (P. falciparum 3D7 cells; [9]) [%]	pXC50_3D7 (P. falciparum 3D7 cells; [9])	PCT_INHB_DD2 (DD2 [5]) [%]
Nc1ncc(-c2cn[nH]c2)cc1-c1nc2ccc(F)cc2[nH]1 [TCMDC-133559]	38	0	53	150	100	6.137	–	–	–	–	–
Nc1ncc(-c2cn[nH]c2)cc1-c1nc2ccc(Cl)cc2[nH]1 [TCMDC-133560]	46	0	100	834	100	6.098	–	–	–	–	–
Cc1cccc2[nH]c(-c3cc(-c4cn[nH]c4)cnc3N)nc12 [TCMDC-133561]	37	0	93	296	100	6.6562	–	–	–	–	–
Nc1ncc(-c2cn[nH]c2)cc1-c1nc2cc(Cl)cnc2[nH]1 [TCMDC-133562]	40	1	70	280	100	6.039	–	–	–	–	–
CNC(=O)c1ccccc1Nc1nc(Nc2ccc(C(=O)O)cc2)ncc1Cl.Cl [TCMDC-133803]	–	–	–	246	–	–	60	0	92	6.022	92
CCn1c(-c2nonc2N)nc2c(-c3ccc(CO)o3)ncc(OCCCN)c21.O=C(O)C(F)(F)F [TCMDC-133807]	–	–	–	51	–	–	0	0	93	5.866	97
CN1CCN(c2ccc(Nc3ncc(Cl)c(Nc4cccnc4C(N)=O)n3)cc2)CC1.Cl [TCMDC-134164]	–	–	–	12	–	–	99	0	95	6.816	97
NC(=O)c1ccccc1Nc1nc(Nc2cc[nH]n2)ncc1Cl [TCMDC-134169]	–	–	–	186	–	–	67	0	96	6.019	93
O=C(O)C(F)(F)F.O=c1[nH]ccc2nc(N[C@@H]3CCNC3)nc(Nc3ccc4c(c3)S(=O)(=O)CC4)c12 [TCMDC-135044]	–	–	–	235	–	–	0	0	100	6.4233	99
CCOC(=O)c1cccc(NC(=O)Nc2cccc(-c3ncc(OCCCN)c4c3nc(-c3nonc3N)n4CC)c2)c1.O=C(O)C(F)(F)F [TCMDC-136205]	–	–	–	294	–	–	16	2	100	6.0485	98
Cl.c1ccc(Oc2ccc(Nc3ccnc(Nc4ccc5cn[nH]c5c4)n3)cc2)cc1 [TCMDC-138574]	–	–	–	765	–	–	6	0	94	6.135	33
Cl.N#CCc1ccc(Nc2nccc(Nc3ccc(Oc4ccccc4)cc3)n2)cc1 [TCMDC-138577]	–	–	–	798	–	–	0	6	98	6.094	47
Cl.c1ccc(Oc2ccc(Nc3ccnc(Nc4ccc(OCCN5CCCCC5)cc4)n3)cc2)cc1 [TCMDC-138583]	–	–	–	701	–	–	23	0	97	6.219	66
CC(=O)Nc1cccc(Nc2nccc(Nc3ccc(Oc4ccccc4)cc3)n2)c1.Cl [TCMDC-138590]	–	–	–	425	–	–	15	0	100	6.128	99
O=C(NCCN1CCCC1)c1cccc(Nc2nccc(Nc3ccc(Oc4ccccc4)cc3)n2)c1 [TCMDC-138602]	–	–	–	213	–	–	33	0	100	6.184	18
O=C(NCCN1CCCCC1)c1cccc(Nc2nccc(Nc3ccc(Oc4ccccc4)cc3)n2)c1 [TCMDC-138603]	–	–	–	250	–	–	50	0	99	6.563	86
O=C(NCCCN1CCOCC1)c1cccc(Nc2nccc(Nc3ccc(Oc4ccccc4)cc3)n2)c1 [TCMDC-138604]	–	–	–	180	–	–	34	0	98	6.116	22
O=C(NCCCN1CCCCC1)c1cccc(Nc2nccc(Nc3ccc(Oc4ccccc4)cc3)n2)c1 [TCMDC-138605]	–	–	–	243	–	–	47	2	96	6.086	12
CCCN1CCN(CCNC(=O)c2cccc(Nc3nccc(Nc4ccc(Oc5ccccc5)cc4)n3)c2)CC1 [TCMDC-138606]	–	–	–	336	–	–	56	0	99	6.622	96
O=C(NCCN1CCC(c2ccncc2)CC1)c1cccc(Nc2nccc(Nc3ccc(Oc4ccccc4)cc3)n2)c1 [TCMDC-138607]	–	–	–	220	–	–	60	0	100	6.773	91
O=C(NCCN1CCCCC1)c1ccc(Nc2nccc(Nc3ccc(Oc4ccccc4)cc3)n2)cc1 [TCMDC-138608]	–	–	–	103	–	–	58	0	100	6.257	91
O=C(NCCCN1CCCCC1)c1ccc(Nc2nccc(Nc3ccc(Oc4ccccc4)cc3)n2)cc1 [TCMDC-138609]	–	–	–	94	–	–	30	0	100	6.204	61
O=C(NCCN1CCC(c2ccncc2)CC1)c1ccc(Nc2nccc(Nc3ccc(Oc4ccccc4)cc3)n2)cc1 [TCMDC-138610]	–	–	–	135	–	–	17	1	100	6.14	90
CN1CCN(Cc2cccc(Nc3nccc(Nc4ccc(Oc5ccccc5)cc4)n3)c2)CC1 [TCMDC-138614]	–	–	–	801	–	–	30	2	97	6.529	80
CN1CCN(CCCNCc2cccc(Nc3nccc(Nc4ccc(Oc5ccccc5)cc4)n3)c2)CC1 [TCMDC-138616]	–	–	–	261	–	–	97	0	100	6.117	80
CN1CCN(CCCNCc2ccc(Nc3nccc(Nc4ccc(Oc5ccccc5)cc4)n3)cc2)CC1 [TCMDC-138621]	–	–	–	139	–	–	17	0	100	6.197	9
Cc1ccc(Nc2nc3cc(N(C)c4ccnc(Nc5cccc(CCS(C)(=O)=O)c5)n4)ccc3n2C)cc1.O=C(O)C(F)(F)F [TCMDC-138853]	–	–	–	160	–	–	78	4	99	6.469	73
Cn1c(Nc2cc(C(C)(C)C)on2)nc2cc(Nc3ccnc(Nc4cccc(CS(C)(=O)=O)c4)n3)ccc21 [TCMDC-141893]	–	–	–	114	–	–	63	0	99	6.243	94
Cc1ccc(Nc2nccc(N(C)c3ccc4c(c3)nc(NC(=O)Cc3ccc(Cl)c(Cl)c3)n4C)n2)cc1S(N)(=O)=O.O=C(O)C(F)(F)F [TCMDC-141965]	–	–	–	345	–	–	71	0	94	5.954	60
